Results as given in US10086054B2, “RM2 antigens and use thereof” (ACADEMIA SINICA, priority 2013, dated 2018).
Where two headings read alike, the source gives them in different places.

Assays:
[1] = tested on: RM2 (a mouse IgM anti-RM2 monoclonal antibody); test: Glycan array binding specificity of monoclonal antibody RM2; conditions: glycans printed at 100 μM; FIG. 11
Protocol: An expanded glycan array containing the synthesized hexasaccharide 1 and its analogs along with the other ninety glycans are incorporated to a glycan array for testing (Figure S4). All glycans were directly immobilized onto NHS-coated glass slides by taking an aliquot from a stock solution of sugar at a fixed concentration (100 μM). The assay involved an initial treatment with RM2 (a mouse IgM anti-RM2 monoclonal antibody, a kind gift from Prof. Saito), followed by incubation with a fluorescein-tagged anti mouse IgM secondary antibody against its primary antibody. After one hour incubation, the slides were washed with ddH2O twice and scanned to show the binding specificity of the antibody to printed oligosaccharides. […] To determine the dissociation the dissociation constants of RM2 and truncated analogs on the surface interacting with the antibody in a multivalent manner, the direct measurement method was experimented (Liang, P. H.; Wang, S. K.; Wong, C. H. J. Am. Chem. Soc. 2007, 129, 11177), using different concentrations of antibodies and printed sugars. […] Using the same method, the KD,surf values were determined for the truncated RM2 analog 29 interacting with the antibody (FIG. 21 and Table S2). […]

[2] = tested on: monoclonal RM2 antibody; test: Determination of surface dissociation constant (KD,surf) on glycan microarray; type: binding, mouse
Protocol: An expanded glycan array containing the synthesized hexasaccharide 1 and its analogs along with the other ninety glycans are incorporated to a glycan array for testing (Figure S4). All glycans were directly immobilized onto NHS-coated glass slides by taking an aliquot from a stock solution of sugar at a fixed concentration (100 μM). The assay involved an initial treatment with RM2 (a mouse IgM anti-RM2 monoclonal antibody, a kind gift from Prof. Saito), followed by incubation with a fluorescein-tagged anti mouse IgM secondary antibody against its primary antibody. After one hour incubation, the slides were washed with ddH2O twice and scanned to show the binding specificity of the antibody to printed oligosaccharides. […] To determine the dissociation the dissociation constants of RM2 and truncated analogs on the surface interacting with the antibody in a multivalent manner, the direct measurement method was experimented (Liang, P. H.; Wang, S. K.; Wong, C. H. J. Am. Chem. Soc. 2007, 129, 11177), using different concentrations of antibodies and printed sugars. […] At the printing concentrations from 100 μM to 6.25 μM, however, it was observed that the KD,surf values measured were narrowly distributed from the individual curves (FIG. 20 and Table 1). Using the same method, the KD,surf values were determined for the truncated RM2 analog 29 interacting with the antibody (FIG. 21 and Table S2).
The slides were spotted with solution of RM2 1 and 29 with concentrations 100, 50, 25, 12.5, and 6.25 μM 2 rows from top to bottom with 5 replicates horizontally placed in each grids. The glycan microarray was blocked with 50 mM ethanolamine for 1 h at 0° C. and washed three times with PBST buffer before use. The monoclonal RM2 antibody was diluted with 3% BSA/PBST buffer (PBST buffer: PBS and 0.05% Tween-20, pH 7.4). Next, Cy3-conjugated goat anti-mouse IgM antibody was added into the diluted solution to precomplex with primary antibody. The precomplexed solution was applied to each well and incubated at 0° C. for 1 h in the dark. Finally, the slides were washed by PBST washing buffer and ddH2O in sequence. The slides were spin-dried for 5 minutes before scanned at 635 nm with a microarray fluorescence chip reader (GenePix 4300A; Molecular Devices Corporation). Scanned images were analyzed with GenePix Pro-6.0 analysis software (Axon Instruments, Union City, Calif., USA).

[3] = tested on: induced IgG antibodies by DT-RM4.7/C34 vaccine; test: Specificity analysis of antibodies induced by DT-RM4.7/C34 vaccine on glycan microarray; type: binding, mouse; conditions: sera of DT-RM4.7/C34-immunized mice; for binding of induced IgG antibodies to glycan: FIG. 14; for binding of induced antibodies to glycan, microarray of STn, DSGG, RM2 antigen, analogs and fragments: FIG. 15
Protocol: It was observed that these oligosaccharides all contain the same epitope trisaccharide 27 (NeuAcα2→6GlcNAcβ1→3Galβ1→R). To further evaluate the vaccine specificity, a glycan microarray created by STn, DSGG, RM2 antigen, RM2 antigen analogs, and RM2 antigen fragments was constructed (FIG. 15).
Microarrays were printed (BioDot; CartesianTechnologies) by robotic pin (SMP3; TeleChem In-ternational Inc.) deposition of 0.7 nL 100 μM amine-containing glycans in printing buffer (300 mM phosphate buffer, pH 8.5, containing 0.01% TritonX-100) from a […] microtiter plate onto N-Hydroxysuccinimide (NHS)-coated glass slides. Subsequently, a 96-glycan microarray (Fig. S2) was used to determine the polyclonal Ab spectrum of DT-RM series-induced antiserum. Printed slides were allowed to react in an atmosphere of 80% humidity for 1 h followed by desiccation overnight. These slides were stored at room temperature in a desiccator prior to use.
Mouse sera were diluted with 1% BSA/PBST buffer (PBST buffer: PBS and 0.05% Tween-20, pH 7.4). The glycan microarray was blocked with 50 mM ethanolamine for 1 h at 0° C. and washed three times with PBST buffer before use. The serum dilutions were then introduced to the glycan microarray and incubated at 0° C. for 1 h. Next, Cy3-conjugated goat anti-mouse IgG (H+L), IgG1, IgG2a, IgG2b, IgG2c, IgG3, or anti-mouse IgM was added to the microarray slide and then sealed for 1 h incubation at 0° C. in the dark. Finally, the slides were washed three times with PBST, PBST washing buffer, and ddH2O in sequence. The slides were spin-dried for 5 minutes before scanned at 635 nm with a microarray fluorescence chip reader (GenePix 4300A; Molecular Devices Corporation). Scanned images were analyzed with GenePix Pro-6.0 analysis software (Axon Instruments, Union City, Calif., USA).

[4] = antibody RM2, glycan printed on microarray, read-out: KD, surf (nM) ± SD

CC(=O)N[C@@H]1[C@@H]([C@H](O)[C@H](O)CO)O[C@](O[C@@H]2[C@@H](O)[C@H](O[C@H]3[C@H](O)[C@@H](CO[C@]4(C(=O)O)C[C@H](O)[C@@H](NC(C)=O)[C@H]([C@H](O)[C@H](O)CO)O4)O[C@@H](O[C@H]4[C@@H](O)[C@@H](CO)O[C@@H](OCCCCCN)[C@@H]4O)[C@@H]3NC(C)=O)O[C@H](CO)[C@@H]2O[C@@H]2O[C@H](CO)[C@H](O)[C@H](O)[C@H]2NC(C)=O)(C(=O)O)C[C@H]1O [Compound 1]
binding specificity of the antibody to printed oligosaccharides [1]: recognize hexasaccharide 1 specifically
Fmax ([2]; RM2 printing concentration 6.25 μM): 45,483
Kd ([2]; RM2 printing concentration 6.25 μM, read-out: KD, surf): 4.72 nM
Fmax ([2]; RM2 printing concentration 12.5 μM): 45,028
Kd ([2]; RM2 printing concentration 12.5 μM, read-out: KD, surf): 3.14 nM
Fmax ([2]; RM2 printing concentration 25 μM): 47,714
Kd ([2]; RM2 printing concentration 25 μM, read-out: KD, surf): 4.28 nM
Fmax ([2]; RM2 printing concentration 50 μM): 53,982
Kd ([2]; RM2 printing concentration 50 μM, read-out: KD, surf): 5.48 nM
Fmax ([2]; RM2 printing concentration 100 μM): 55,756
Kd ([2]; RM2 printing concentration 100 μM, read-out: KD, surf): 5.1 nM
relative binding specificity of RM2 for the epitopes ([2]; antibody RM2): RM2>pentasaccharide 29
Kd [2, 4]: 4.54 ± 0.903 nM
binding of induced IgG antibodies to glycan [3]: strong binding
binding of induced antibodies to glycan, microarray of STn, DSGG, RM2 antigen, analogs and fragments [3]: mainly bound

CC(=O)N[C@H]1[C@H](O[C@H]2[C@@H](O)[C@@H](CO)O[C@@H](OCCCCCN)[C@@H]2O)O[C@H](CO[C@]2(C(=O)O)C[C@H](O)[C@@H](NC(C)=O)[C@H]([C@H](O)[C@H](O)CO)O2)[C@@H](O)[C@@H]1O [Compound 27, (2R,4S,5R,6R)-5-acetamido-2-(((2R,3S,4R,5R,6S)-5-acetamido-6-((2R,3R,4S,5S,6R)-2-(5-aminopentyloxy)-3,5-dihydroxy-6-(hydroxymethyl)tetrahydro-2H-pyran-4-yloxy)-3,4-dihydroxytetrahydro-2H-pyran-2-yl)methoxy)-4-hydroxy-6-((1R,2R)-1,2,3-trihydroxypropyl)tetrahydro-2H-pyran-2-carboxylic acid]
binding of induced IgG antibodies to glycan [3]: weaker binding
binding of induced antibodies to glycan, microarray of STn, DSGG, RM2 antigen, analogs and fragments [3]: mainly bound

CC(=O)N[C@H]1[C@H](O[C@H]2[C@@H](O)[C@@H](CO)O[C@@H](OCCCCCN)[C@@H]2O)O[C@H](CO[C@]2(C(=O)O)C[C@H](O)[C@@H](NC(C)=O)[C@H]([C@H](O)[C@H](O)CO)O2)[C@@H](O)[C@@H]1O[C@@H]1O[C@H](CO)[C@H](O)[C@H](O)[C@H]1O [Compound 28, (2R,4S,5R,6R)-5-acetamido-2-(((2R,3S,4R,5R,6S)-5-acetamido-6-((2R,3R,4S,5S,6R)-2-(5-aminopentyloxy)-3,5-dihydroxy-6-(hydroxymethyl)tetrahydro-2H-pyran-4-yloxy)-3-hydroxy-4-((2R,3R,4S,5R,6R)-3,4,5-trihydroxy-6-(hydroxymethyl)tetrahydro-2H-pyran-2-yloxy)tetrahydro-2H-pyran-2-yl)methoxy)-4-hydroxy-6-((1R,2R)-1,2,3-trihydroxypropyl)tetrahydro-2H-pyran-2-carboxylic acid]
binding of induced IgG antibodies to glycan [3]: weaker binding

CC(=O)NC1[C@H](O[C@@H]2[C@H](O)[C@@H](O)[C@H](O[C@H]3[C@H](O)[C@@H](CO[C@]4(C(=O)O)C[C@H](O)[C@@H](NC(C)=O)[C@H]([C@H](O)[C@H](O)CO)O4)O[C@@H](O[C@H]4[C@@H](O)[C@@H](CO)O[C@@H](OCCCCCN)[C@@H]4O)[C@@H]3NC(C)=O)O[C@@H]2CO)O[C@H](CO)[C@H](O)[C@@H]1O (stereo partly shown) [Compound 29]
Fmax ([2]; 29 on microarray, printing concentration 6.25 μM): 51,597
Kd ([2]; 29 on microarray, printing concentration 6.25 μM, read-out: KD, surf): 5.13 nM
Fmax ([2]; 29 on microarray, printing concentration 12.5 μM): 50,900
Kd ([2]; 29 on microarray, printing concentration 12.5 μM, read-out: KD, surf): 4.05 nM
Fmax ([2]; 29 on microarray, printing concentration 25 μM): 50,970
Kd ([2]; 29 on microarray, printing concentration 25 μM, read-out: KD, surf): 4.5 nM
Fmax ([2]; 29 on microarray, printing concentration 50 μM): 59,045
Kd ([2]; 29 on microarray, printing concentration 50 μM, read-out: KD, surf): 6.44 nM
Fmax ([2]; 29 on microarray, printing concentration 100 μM): 62,859
Kd ([2]; 29 on microarray, printing concentration 100 μM, read-out: KD, surf): 6.96 nM
Kd [2, 4]: 5.76 ± 1.14 nM
binding of induced IgG antibodies to glycan [3]: weaker binding

CC(=O)NC1C(O[C@@H]2OC(CO)[C@H](O)C(O[C@@]3(C(=O)O)CC(O)[C@H](NC(C)=O)C([C@H](O)[C@H](O)CO)O3)C2O)[C@H](O)C(CO[C@]2(C(=O)O)CC(O)[C@@H](NC(C)=O)C([C@H](O)[C@H](O)CO)O2)O[C@H]1OC1C(O)[C@H](OCCCCCN)OC(CO)[C@@H]1O (stereo partly shown) [Compound 30]
binding of induced IgG antibodies to glycan [3]: weaker binding

CC(=O)N[C@H]1[C@H](OCCCCCN)O[C@H](CO[C@]2(C(=O)O)C[C@H](O)[C@@H](NC(C)=O)[C@H]([C@H](O)[C@H](O)CO)O2)[C@@H](O)[C@@H]1O [Compound 33, (2R,4S,5R,6R)-5-acetamido-2-(((2R,3S,4R,5R,6R)-5-acetamido-6-(5-aminopentyloxy)-3,4-dihydroxytetrahydro-2H-pyran-2-yl)methoxy)-4-hydroxy-6-((1R,2R)-1,2,3-trihydroxypropyl)tetrahydro-2H-pyran-2-carboxylic acid]
binding of induced antibodies to glycan, microarray of STn, DSGG, RM2 antigen, analogs and fragments [3]: a lesser extent

CC(=O)NC1C(OC2C(O)C(OCCCCCN)OC(CO)[C@H]2O)OC(CO[C@]2(C(=O)O)CC(O)[C@@H](NC(C)=O)C([C@H](O)[C@H](O)CO)O2)[C@@H](O)C1O (stereo partly shown) [Compound 34]
binding of induced antibodies to glycan, microarray of STn, DSGG, RM2 antigen, analogs and fragments [3]: a lesser extent

CC(=O)N[C@H]1[C@H]([C@H](O)[C@H](O)CO)O[C@@](OC[C@H]2OC(O)[C@H](O)[C@@H](O)[C@H]2O)(C(=O)O)C[C@@H]1O (stereo partly shown) [NeuAcα2→6Gal, reference compound]
binding of induced antibodies to glycan, microarray of STn, DSGG, RM2 antigen, analogs and fragments [3]: no detectable signal of binding
